Tests used:
[1] = test system: COVID-19 pneumonia; assay: Randomized, double-blind, placebo-controlled Phase 2a study of opaganib in COVID-19 pneumonia; format: in vivo, human
Description: This was a phase 2a, proof of concept, multi-center randomized double-blind, parallel arm, placebo-controlled study. After informed consent was obtained, patients entered a screening phase for no more than 3 days, to determine eligibility. […] Treatment assignments remained blinded to the patient, investigator and hospital staff, as well as the sponsor. As there was no consensus for a definitive treatment specifically targeting the SARS-CoV-2 virus causing COVID-19 (Wilson, 2020), standard of care referred to regional, institutional or physician directed therapies, that were implemented during the COVID-19 pandemic.
Study drug was to be administered every day for 14 days (Day 1 to Day 14), unless the patient had been discharged from the hospital without requiring supplemental oxygen, in which case study drug would only be administered to Day 10.
Two patients were randomized in each group but not treated. […] Two patients in the opaganib arm experienced adverse events such that study drug was terminated, while one placebo patient was terminated due to an adverse event.
The primary efficacy endpoint calculated for each patient the area under the curve of the supplemental oxygen requirement through day 14, using the trapezoidal rule after subtracting the baseline oxygen requirement at each day. Days where no supplementary oxygen was needed, were recorded as 0. If several values of oxygen requirement (L/min) are recorded in a certain day, for the primary analysis the highest of these values were taken. In the primary analysis, for patients who die before Day 14, or require intubation and mechanical ventilation, missing daily values were assigned the maximal supplemental oxygen flow requirement of 8 L/min. […]
Supplemental oxygen requirement up to Day 14 was collected even if a patient discontinued treatment prior to Day 14 but continued in the study to Day 14. […] A sensitivity analysis to the above missing data handling approach was performed using an AUC summary statistics approach, in which groups AUC is calculated from the estimated parameters of a Repeated-Measures model. […]

[2] = test system: COVID-19 infection; assay: Pilot / compassionate use study of opaganib in hospitalized patients with COVID-19 pneumonia; format: in vivo, human
Method: Patients entered a screening period of up to 1 week. Eligible patients entered the treatment period for up to 2 weeks. All participants were followed for 2 weeks after their last dose of study drug, at the end of the 2 week treatment period, or once they had 2 consecutive daily negative viral swabs for the COVID-19 virus or at after premature drug discontinuation prior to Day 14. The maximum duration of study participation was 35 days […].
Each dose is administered with food or 15-30 minutes after tube-feeding, where appropriate. […] These patients had moderate to severe COVID-19-related pneumonia with hypoxia on supplemental oxygen.
Five patients were included in the analysis, and for comparison purposes, we used a control group with same-sex, same-severity patients (baseline characteristics). Univariate comparisons between the groups were performed with chi-square test for categorical variables and t-test or MannWhitney U-test for continuous variables, as appropriate. Time variables were compared with Cox proportional hazard regression, adjusted for age and background illnesses. CRP and lymphocyte changes were compared utilizing a repeated measures general linear model with a Bonferroni correction for multiple comparison.

[3] = test system: human bronchial epithelial cells (HBEC); details: male
[4] = test system: SARS-CoV-2 clinical isolate (2019-nCoV/USA-WA1/2020); assay: Anti-viral activity against SARS-CoV-2 in HBEC (EpiAirway) ALI cultures, apical viral titer by TCID50 assay; format: cell-based
[5] = test system: ARDS induced thrombosis; assay: Rat venous stasis (Wessler) model after LPS-induced lung injury (ARDS); format: in vivo, Sprague-Dawley rats
Description: This study assessed the efficacy of ABC294640 to reduce the incidence of adverse thromboembolic events in situ in acute respiratory distress syndrome (ARDS) conditions using a rat venous stasis model. This assay is designed to measure thrombotic risks following LPS-induced lung injury. LPS-induced lung injury is one of the most commonly used rodent models for ARDS and was described to mimic the neutrophilic inflammatory response observed in ARDS patients. The mechanism of LPS-induced ARDS is based on damage to endothelial cells and a systemic inflammatory response.
The venous stasis (Wessler) test in animals has been used extensively for over 40 years as a laboratory measure for in vivo hypercoagulability.
Test compound was administered by oral gavage 3 hours post-instillation and 24, 48 and 72 hours post-instillation, at a dose of 250 mg/kg. The appropriate amount of LPS from E. coli (O55:B5) was diluted in saline to obtain a final concentration of 400 μg/mL. This solution was given by intratracheal instillation (0.5 mL/kg). The vehicle was composed of PBS pH 7.4±0.1. ABC294640 was weighed and transferred in vehicle (PBS, 0.375%, pH 7.4) to obtain a final solution at 25 mg/mL. ABC294640 solution is stirred for 10 minutes at room temperature prior to dosing. This solution was given by oral gavage (250 mg/kg, 10 mL/kg).
Sprague-Dawley rats (male) weighing between 275 and 400 g were used for this study. Animals were randomly assigned to a treatment group by the Study Director. Food and water were given ad libitum. Observation for behavior and general health status were done until the sacrifice. The body weight was recorded before the instillation and 24, 48 and 72 hours post-instillation.
In this study, ARDS was induced by intratracheal instillation of LPS. Throughout the ARDS induction and development process, animal was dosed by oral gavage with vehicle or ABC294640 (3 h, 24 h, 48 and 72 hours post-instillation). […] The stasis was maintained for 30 minutes. The segment was then excised and its content scored. Subsequently, animal was euthanized by exsanguination.
• 1. Prior LPS or saline instillation, the functional respiratory parameters of all rat was assessed by whole-body plethysmography and SpO2 was evaluated on conscious rat with a collar probe pulse oximeter. Rat was first acclimatized to the plethysmograph chamber prior to the physiological assessment. The respiratory rate, the Penh and the inspiratory/expiratory time measurements was analyzed. • 2. […]
• 5. Rats were evaluated periodically to ensure animal well-being (general behavior and daily body weight). • 6. […] SpO2 and whole-body plethysmography were also evaluated 24, 48 and 72 hours post-instillation. • 8. […] The thrombi was measured, weighed and scored on a scale from 0 to 4 (see Table 2).

Cl.O=C(NCc1ccncc1)C12CC3CC(C1)CC(c1ccc(Cl)cc1)(C3)C2 [opaganib, 3-(4-chlorophenyl)-adamantane-1-carboxylic acid (pyridin-4-ylmethyl) amide, hydrochloride salt]
patients with adverse events such that study drug was terminated ([1]; opaganib arm, one placebo patient): Two
patients with serious adverse events (SAEs) vs. placebo arm ([1]; top-line results): fewer patients suffered from serious adverse events (SAEs)
safety vs. placebo arm ([1]; top-line results): safe, with no material safety differences
Clinical Assessment ([2]; Patient 1 (14 d), started as severe on maximal OptiFlow 3 Apr. 2020, one negative viral swab as of 22 April): 3 Apr. 2020; RA by 16 April.
Clinical Assessment ([2]; Patient 2 (14 d), started as severe+, planning for intubation 7 Apr. 2020, RA by 20 Apr. 2020, D/C on 22 Apr. 2020): 7 Apr. 2020; RA by 20
Clinical Assessment ([2]; Patient 3 (7 d), moderate-severe, on OptiFlow 13 Apr. 2020, RA by 17 Apr. 2020, D/C on 19 Apr. 2020): 13 Apr. 2020; RA by
Clinical Assessment ([2]; Patient 4 (11 d), started severe+ 70% OptiFlow on 13 Apr. 2020): RA on 22 Apr. 2020
Clinical Assessment ([2]; Patient 5 (2 d), started moderate on 13 Apr. 2020, nasal cannula, after one day on opaganib, D/C on 14 Apr. 2020 on RA): Dramatic improvement
C-Reactive Protein (CRP) change ([2]; all six patients): reduction in C-Reactive Protein (CRP)
clinical improvement, including reduced supplemental oxygenation and higher lymphocyte counts ([2]; all six patients): measurable clinical improvement
cases requiring mechanical ventilation ([2]; compared with 33% of controls): none of the cases required mechanical ventilation
lymphocyte count increase vs. matched controls ([2]; five patients vs same-sex, same-severity control group): significantly faster increase in lymphocyte count
patients back to breathing room air ([2]; of 6 treated patients): 5 patients
patients discharged from hospital ([2]; of 6 treated patients): 3 patients
moderate to-severe patients improved significantly ([2]; of seven compassionate use patients, patient #7 had only 1 day of treatment): 6 patients
50% cytotoxicity reached in concentration range tested [3]: neither 50% inhibition nor 50% cytotoxicity were reached
50% inhibition reached in concentration range tested ([4]; 0.05 to 11.25 μg/ml): neither 50% inhibition nor 50% cytotoxicity were reached
concentration at which complete inhibition of infectious virus production starts ([4]; 3 days incubation): 1 µg/mL
infectious virus production ([4]; opaganib 0.05 to 11.25 μg/ml, 3 days incubation): dose-dependent reduction in infectious virus production

O=C(NCc1ccncc1)C12CC3CC(C1)CC(c1ccc(Cl)cc1)(C3)C2 [ABC294640, 3-(4-chlorophenyl)-adamantane-1-carboxylic acid (pyridin-4-ylmethyl)amide]
blood clot length ([5]; 250 mg/kg oral gavage): reduction
blood clot weight ([5]; 250 mg/kg oral gavage): reduction
thrombosis ([5]; 250 mg/kg oral gavage 3, 24, 48, 72 h post LPS instillation, 30 min stasis): reduction of thrombosis
total thrombus score ([5]; 250 mg/kg oral gavage, score 0 to 4): reduction
